According to patent publication US11707462B2, “Checkpoint kinase 1 (CHK1) inhibitors and uses thereof” (Boundless Bio, Inc., priority 2021, dated 2023):

Assays:
p-CHK1 (Ser345) = experiment: AlphaLISA SureFire Ultra p-CHK1 (Ser345) cellular assay in HT29 cells; format: cell-based; settings: Homo sapiens, HT-29, 16 h at 37° C.
Outline: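 HT29 cells treated with compounds over a 10-point, 3-fold dilution series for 16 h at 37° C., then lysed; p-CHK1 (Ser345) in lysates measured by AlphaLISA SureFire Ultra (acceptor and donor steps 1 h each at room temperature). IC50 from dose-response curve fits.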

[1] = molecular target: T1, Full-length human Chk1 protein (Homo sapiens, UniProt O14757); experiment: Kinase HTRF biochemical assay (HTRF KinEASE), Chk1 enzyme activity; settings: full-length human Chk1, ATP 1 mM, 60 minutes at room temperature
T1 construct: purchased Carna Biosciences, Inc. 02-117
T1 sequence (O14757 1-476): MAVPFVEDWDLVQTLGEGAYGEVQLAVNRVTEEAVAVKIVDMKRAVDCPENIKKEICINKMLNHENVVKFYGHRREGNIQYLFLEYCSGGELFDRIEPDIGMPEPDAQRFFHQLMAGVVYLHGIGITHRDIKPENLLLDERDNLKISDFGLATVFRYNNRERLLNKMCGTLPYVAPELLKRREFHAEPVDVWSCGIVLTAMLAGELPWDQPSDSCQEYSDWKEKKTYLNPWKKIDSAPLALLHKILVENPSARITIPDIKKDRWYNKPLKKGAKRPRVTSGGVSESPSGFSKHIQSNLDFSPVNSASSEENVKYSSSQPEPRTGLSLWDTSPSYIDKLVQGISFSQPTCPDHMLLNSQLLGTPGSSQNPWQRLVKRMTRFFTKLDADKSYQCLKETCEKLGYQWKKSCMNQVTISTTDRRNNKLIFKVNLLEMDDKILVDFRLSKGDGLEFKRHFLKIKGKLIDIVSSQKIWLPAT
Outline: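 Full-length human Chk1 (0.012 ng/μL) in buffer with 5 mM MgCl2 and 1 mM DTT, preincubated with compound 10 min at room temperature; reaction with 120 nM biotinylated STK substrate 1 and 1 mM ATP for 60 min at room temperature. HTRF detection via cryptate antibody/streptavidin-XL665; IC50 from 10-point duplicate curves.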

Structure (SMILES)	IC50 (p-CHK1 (Ser345)) [nM]	IC50 [1] [nM]
N#Cc1cnc(Nc2cc(-c3c(OCC4CC4)cccc3O[C@H]3C[C@H](N)C3)[nH]n2)cn1 [Example 1-32, 5-((5-(2-((1r,3r)-3-aminocyclobutoxy)-6-(cyclopropylmethoxy)phenyl)-1H-pyrazol-3-yl)amino)pyrazine-2-carbonitrile]	500 to 1000	10 to 100
N#Cc1cnc(Nc2cc(-c3c(F)cccc3O[C@@H]3CC[C@H]3N)[nH]n2)cn1 [Example 3-33, 5-((5-(2-((1R,2R)-2-aminocyclobutoxy)-6-fluorophenyl)-1H-pyrazol-3-yl)amino)pyrazine-2-carbonitrile]	50 to 100	10 to 100
Cc1ccc(O[C@@H]2CC[C@@H](N)C2)c(-c2cc(Nc3cnc(C#N)cn3)n[nH]2)n1 [Example 1-60, 5-((5-(3-(((1R,3R)-3-aminocyclopentyl)oxy)-6-methylpyridin-2-yl)-1H-pyrazol-3-yl)amino)pyrazine-2-carbonitrile]	≤ 50	≤ 10
COc1cccc(OC2CCC(N)C2C)c1-c1cc(Nc2cnc(C#N)cn2)n[nH]1 (centres unmarked) [Example 1-47, 5-((5-(2-((3-amino-2-methylcyclopentyl)oxy)-6-methoxyphenyl)-1H-pyrazol-3-yl)amino)pyrazine-2-carbonitrile]	≤ 50	≤ 10
COc1cc(F)c(-c2cc(Nc3cnc(C#N)cn3)n[nH]2)c(O[C@@H]2CC[C@H](N)C2)c1 [Example 1-41, 5-((5-(2-(((1R,3S)-3-aminocyclopentyl)oxy)-6-fluoro-4-methoxyphenyl)-1H-pyrazol-3-yl)amino)pyrazine-2-carbonitrile]	100 to 500	≤ 10
COc1cccc(O[C@H]2CC[C@@H]2N)c1-c1cc(Nc2cnc(C#N)cn2)n[nH]1 [Example 3-5, 5-((5-(2-((1S,2S)-2-aminocyclobutoxy)-6-methoxyphenyl)-1H-pyrazol-3-yl)amino)pyrazine-2-carbonitrile]	≤ 50	≤ 10
Cc1ccc(O[C@@H]2CC[C@H](N)C2)c(-c2cc(Nc3cnc(C#N)cn3)n[nH]2)n1 [Example 1-57]	50 to 100	≤ 10
COc1cc(F)cc(O[C@H]2C[C@H](N)C2)c1-c1cc(Nc2cnc(C#N)cn2)n[nH]1 [Example 1-14, 5-((5-(2-((1r,3r)-3-aminocyclobutoxy)-4-fluoro-6-methoxyphenyl)-1H-pyrazol-3-yl)amino)pyrazine-2-carbonitrile]	≤ 50	≤ 10
N#Cc1cnc(Nc2cc(-c3ccccc3O[C@@H]3CC[C@@H](N)C3)[nH]n2)cn1 [Example 1-53, 5-((5-(2-(((1R,3R)-3-aminocyclopentyl)oxy)phenyl)-1H-pyrazol-3-yl)amino)pyrazine-2-carbonitrile]	50 to 100	≤ 10

Next, values leading:

IC50 (p-CHK1 (Ser345)) [nM]	IC50 [1] [nM]	Structure (SMILES)
50 to 100	≤ 10	CN[C@@H]1CC[C@@H](Oc2cc(F)c(C)cc2-c2cc(Nc3cnc(C#N)cn3)n[nH]2)C1 [Example 3-21, 5-((5-(4-fluoro-5-methyl-2-(((1R,3R)-3-(methylamino)cyclopentyl)oxy)phenyl)-1H-pyrazol-3-yl)amino)pyrazine-2-carbonitrile]
> 1000	100 to 500	COc1ccc(C)c(O[C@@H]2CC[C@H](N)C2)c1-c1cc(Nc2cnc(C#N)cn2)n[nH]1 [Example 4-3, 5-((5-(2-(((1R,3S)-3-aminocyclopentyl)oxy)-6-methoxy-3-methylphenyl)-1 H-pyrazol-3-yl)amino)pyrazine-2-carbonitrile]
100 to 500	10 to 100	Cc1ccc(O[C@@H]2CC[C@H](N)C2)c(-c2cc(Nc3cnc(C#N)cn3)n[nH]2)c1F [Example 3-16, 5-((5-(6-(((1R,3S)-3-aminocyclopentyl)oxy)-2-fluoro-3-methylphenyl)-1H-pyrazol-3-yl)amino)pyrazine-2-carbonitrile]
500 to 1000	100 to 500	COc1c(C)ccc(O[C@@H]2CC[C@H](N)C2)c1-c1cc(Nc2cnc(C#N)cn2)n[nH]1 [Example 4-1, 5-((5-(6-(((1R,3S)-3-aminocyclopentyl)oxy)-2-methoxy-3-methylphenyl)-1H-pyrazol-3-yl)amino)pyrazine-2-carbonitrile]
